The source of these data is patent US20190322638A1, “DIPYRIDYL ALKALOID, PREPARATION METHOD THEREFOR AND USE THEREOF” (OCEAN UNIVERSITY OF CHINA, priority 2016, published 2019).

Molecules are shown by their SMILES. Where two headings read alike, the source gives them in different places.

In series [1] the test system is cervical cancer cell lines (Hela cells). Put plainly: In vitro antitumor activity, MTT method. The conditions noted are these: for SI = CC50 (normal cell line L-02)/IC50 (tumor cell line): Hela cell line vs L-02; for IC50: Homo sapiens, read-out: Cytotoxic Activity IC50. It counts as cell-based. On the procedure: (§1) Cell lines and subculture of cells: The following five tumor cell lines were used for activity test human colon cancer cell lines (HCT-116 cells), human hepatoma cell lines (HepG2 cells), human breast cancer cell lines (MCF-7 cells), cervical cancer cell lines (Hela cells), human peripheral blood leukemia T cell lines (Jurkat cells), and human normal liver cell lines (L-02 cells), of which MCF-7, HepG2, Hela, and L-02 cell lines were tested using the MTT model; HCT-116 cell lines were tested using the SRB model. All of the cells were subcultured in a 10% FBS-containing RPMI-1640 medium in an incubator charged with 5% carbon dioxide at 37° C.
(§2) MTT method: Dehydrogenase in mitochondria in live cells was capable of metabolizing yellow bromized 3-(4,5-dimethylthiazole)-2,5-diphenyltetrazolium into ianthinus water-insoluble formazan, and an amount of formazan could be determined by measuring the absorbance thereof with a microplate reader. Since the amount of formazan was directly proportional to the number of live cells, the number of live cells could be determined from the absorbance to learn about the drug's capability of inhibiting or killing tumor cells. […] The cell suspension was inoculated to a 96-well plate at 100 μL per well, and cultured at 37° C. for 24 hours. Thereafter, 100 μL of the sample solutions at different concentrations were added to respective wells and continued to be cultured for 72 hours. Then, 20 μL of MTT-containing IPMI-1640 solution ([…]) was added. After further cultivation for 4 hours, the culture solutions were slowly decanted and 150 μL of DMSO was added to dissolve the formazan, and the absorbance was measured at a wavelength of 540 nm. […] The half inhibitory concentration against cancer cells (IC50) and the half inhibitory concentration against normal cells (CC50) were determined.
(§3) Selection Index (SI) is the ratio of the CC50 value of a test sample inhibiting the growth of normal cell lines to the IC50 value of the test sample inhibiting tumor cell proliferation, which reflects the selectivity and safety of the sample.
(§4) SI=CC50(normal cell line L-02)/IC50(tumor cell line) Equation: […]
Background: Formazan colour is commonly taken as a measure of viable cells.

The test system of series [2] is human hepatoma cell lines (HepG2 cells). The experiment in a line: In vitro antitumor activity, MTT method. It counts as cell-based. The conditions noted are these: for SI = CC50 (normal cell line L-02)/IC50 (tumor cell line): HepG2 cell line vs L-02; for IC50: Homo sapiens, read-out: Cytotoxic Activity IC50. On the procedure:
as §1, §2, §3, §4

A short description of series [3]: Toxicity to normal cells, MTT method. Type of series: cell-based. The conditions noted are these: human, L-02 cell line. On the procedure:
as §1, §2

In series [4] the test system is human colon cancer cell lines (HCT-116 cells). The experiment in a line: In vitro antitumor activity, SRB method. It counts as cell-based. As to conditions: for SI = CC50 (normal cell line L-02)/IC50 (tumor cell line): HCT-116 cell line vs L-02; for IC50: Homo sapiens, read-out: Cytotoxic Activity IC50. On the procedure:
as §1
SRB method: According to the cell growth rate, tumor cells at the logarithmic phase (medium: RPMI-1640 medium containing 10% newborn fetal bovine serum (FBS); cell density: 3×10^4 cells/mL) were inoculated into a 96-well culture plate at 180 μL/well, and subjected to adherent growth for 24 hours at 37° C. under 5% CO2. Subsequently, a test sample was added at 20 μL/well, and four duplicated wells were provided at each concentration. […] The culture solution was decanted, and the cells were fixed with 10% cold trichloroacetic acid (TCA), allowed to stand at 4° C. for 1 hour, and then washed 5 times with distilled water and dried in the air. Thereafter, 100 μL/well of a 4 mg/ml solution of sulforhodamine B (SRB, Sigma) formulated by 1% glacial acetic acid was added, and the mixture was stained at a room temperature for 15 minutes, and the supernatant was removed, washed 5 times with 1% acetic acid, and dried in the air. Finally, 150 μL/well of Tris solution was added, and the absorbance (OD value) was measured with a microplate reader at a wavelength of 540 nm. […] The half inhibitory concentration against cancer cells (IC50) was determined.
as §3, §4
(In general: Sulforhodamine B stains cellular protein and so reports cell mass.)

The test system of series [5] is human peripheral blood leukemia T cell lines (Jurkat cells). The experiment in a line: In vitro antitumor activity, Jurkat cells. It counts as cell-based. As to conditions: for IC50: Homo sapiens, read-out: Cytotoxic Activity IC50; for SI = CC50 (normal cell line L-02)/IC50 (tumor cell line): Jurkat cell line vs L-02. On the procedure: as §1, §3, §4
Series [6] deals with colon cancer HCT-116 transplantation tumors. The experiment in a line: In vivo antitumor test on transplantation tumors in nude mice. Also noted: species or system BALB/C (nu/nu) nude mice. The conditions noted are these: HCT-116, 14 days, Docetaxel 5 mg/kg intravenously every other day, Compound 2 7.5 mg/kg intraperitoneally daily; for Tumor Weight: X ± S; for Inhibition Rate % (tumor inhibition rate): vs negative control. On the procedure: An in vivo antitumor test for Compound 2 was conducted on in vivo transplantation tumors from nude mice experiencing colon cancer HCT-116.
Laboratory mice: BALB/C, (nu/nu) nude mice, from 18 to 20 g in weight, male; purchased from BEIJING HFK BIOSCIENCE Co., LTD.; License No.: SCXK (Jing)-2014-0004.
Positive drug: Docetaxel, dissolved with Tween DMSO as a solvent and formulated into 9 mg/mL solution for service; diluted with normal saline.
Test drug: Compound 2, 10 mg/mL of stock solution being dissolved with DMSO, diluted with normal saline till the concentration was 0.75 mg/mL, and the administration volume was 0.1 mL/10 g body weight.
(§5) A cell suspension of human colon cancer cell line HCT-116 at a concentration of 30 million/mL was formulated in a 5 A medium containing 10% fetal bovine serum. After conventional disinfection, the cell suspension was inoculated subcutaneously into the armpits of the right forelimbs of the mice at a dose of 0.2 ml for each. The mice were not administered until the tumors had grown to an average volume of about 100 mm^3. Positive drugs, compounds, and negative control groups were arranged. The dosages were 5 mg/kg of Docetaxel (positive), and 7.5 mg/kg of Compound 2. Routes of administration were as follows: Docetaxel was intravenously administered every other day; Compound 2 was intraperitoneally injected daily; the negative control group was intraperitoneally injected with isometric normal saline. The mice were administered for 14 days, during which the mice were weighed daily and the variation trends of body weights of the mice were calculated. The mice were killed 24 hours after the last administration. Their tumor tissues were dissected, the tumor mass was weighed, and the tumor inhibition rate was calculated. The equation for calculating the tumor inhibition rate was as follows: […]
(§6) Statistical analysis: The SPSS 13.0 statistical software was used for data processing. The resulting data were marked with X±S. The data from each group were analyzed by t test, and the P value was used to indicate difference between groups.

Series [7] is described as follows: Spleen index, body weight and behavioral observation of mice in the in vivo antitumor test. Also noted: species or system BALB/C (nu/nu) nude mice. The conditions noted are these: nude mice; for effect on body weight of the mice / effect on spleen index of mice (in words): 14 days administration; for Spleen Index (100 × spleen mass/body mass): 14 days, Docetaxel (10 mg/kg as printed in Table 11), Compound 2 7.5 mg/kg. How it is done: as §5, with “The dosages were 5 mg/kg of Docetaxel (positive), and 7.5 mg/kg of Compound 2.” left out
In the meantime, the spleens were removed from the mice, and the capsules were peeled off. The mass of the spleens of the mice was recorded respectively, and the spleen indices were calculated by the following equation:
spleen index=100×spleen mass/body mass.
as §6

In series [8] the test system is human breast cancer cell lines (MCF-7 cells). Put plainly: In vitro antitumor activity, MTT method. It counts as cell-based. As to conditions: for IC50: Homo sapiens, read-out: Cytotoxic Activity IC50; for SI = CC50 (normal cell line L-02)/IC50 (tumor cell line): MCF-7 cell line vs L-02. On the procedure:
as §1, §2, §3, §4

Where [9] appears, read: HCT-116 cell line, SRB, 72 hours.

The IC50 is the midpoint of a concentration-inhibition curve. Usually CC50 stands for the concentration at which the toxic effect on the cells reaches its halfway point. Lower therefore signals greater toxicity to the cells.

As for `C[C@@H]1O[C@@H](Oc2cc(/C=N/O)nc(-c3ccccn3)c2)[C@H](O)[C@H](O)[C@H]1O` [Compound 1], the “SI = CC50 (normal cell line L-02)/IC50 (tumor cell line)” value (from here on “SI = CC50 (normal cell line L-02)/IC50”) was found to be 3.1 in series [1], 10.5 in series [2], 40.4 in series [4] and 2.6 in series [5]. In addition, the IC50 in series [1] (Hela cell line, MTT, 72 hours) was determined as 9 µM; in series [2] (HepG2 cell line, MTT, 72 hours) it was 2.7 µM; in series [4] (setting [9]), 0.7 µM; in series [5] (Jurkat cell line), 10.8 µM. The same compound showed a CC50 at 72 h in series [3] (L-02 normal liver cells) of 28.3 µM.
`COc1cc(/C=N/O)nc(-c2ccccn2)c1` [Compound 2]: the “Tumor Weight” value in series [6] stood at 0.59 ± 0.33 g. For the same compound, in series [6], the “Inhibition Rate % (tumor inhibition rate)” value is reported as 42.46%. Besides, the “effect on body weight of the mice” value in series [7] is on record as “not adversely affected”. Further, the “effect on spleen index of mice (in words)” value in series [7] is reported as “no effect”. Also, the “Spleen Index (100 × spleen mass/body mass)” value in series [7] is given as 0.45 ± 0.09. Further, the “behavioral observation: adverse effects” value in series [7] (within 14 days after administration, 7.5 mg/kg intraperitoneally daily) is reported as “no obvious adverse effects such as allergy were observed”. Moreover, the IC50 in series [8] (MCF7, 72 h) was determined as 1 µM; in series [1] (HeLa, 72 h), 0.1 µM; in series [2] (HepG2, 72 h), 0.2 µM; in series [4] (HCT-116, 72 h), 0.3 µM; in series [5] (Jurkat), 0.2 µM. For the same compound, the “SI = CC50 (normal cell line L-02)/IC50” value in series [8] turned out to be 3.9; in series [1] it was 39; in series [2], 19.5; in series [4], 13.0; in series [5], 19.5. Moreover, in series [3], the midpoint of cytotoxicity, the CC50 at 72 h, lay at 3.9 µM.
`COc1cc(/C=N/O)nc(-c2ccccn2)c1O` [Compound 4] showed a CC50 at 72 h in series [3] of 1.7 µM. In series [4], the “SI = CC50 (normal cell line L-02)/IC50” value was found to be 1.2. Further, in series [4] (HCT-116, 72 h), the IC50 was 1.4 µM.
With `COc1cc(/C=N/O)nc(-c2ccc(F)cn2)c1` [Compound 5], the “SI = CC50 (normal cell line L-02)/IC50” value in series [1] is 1.7. Moreover, the IC50 in series [1] (Hela cell line, MTT, 72 hours) stood at 4.4 µM. The same compound displayed a CC50 at 72 h in series [3] (L-02 normal liver cells) of 7.5 µM.
As to `COc1cc(C=O)nc(-c2ccccn2)c1` [Compound 6], the IC50 in series [8] (MCF7, MCF-7 cell line, MTT, 72 hours) is 12 µM; in series [1] (Hela cell line, MTT, 72 hours), 19.3 µM; in series [4] (setting [9]), 6 µM; in series [5] (Jurkat cell line) it was 14.5 µM. Further, the “SI = CC50 (normal cell line L-02)/IC50” value in series [8] is 2.6; in series [1], 1.6; in series [4], 5.2; in series [5] it was 2.2. Besides, it took 31.4 µM to reach half-maximal cytotoxicity in series [3] (L-02 normal liver cells) (CC50 at 72 h).
For the compound `C[C@H]1O[C@H](Oc2cc(/C=N/O)nc(-c3ccccn3)c2)[C@H](O)[C@@H](O)[C@@H]1O` [Compound 7], the “SI = CC50 (normal cell line L-02)/IC50” value in series [1] was found to be 23.8; in series [2], 6.0; in series [4] it was 27.0; in series [5], 45.8. Further, the IC50 in series [1] (Hela cell line, MTT, 72 hours) amounted to 2.5 µM; in series [2] (HepG2 cell line, MTT, 72 hours), 10 µM; in series [4] (setting [9]) it was 2.2 µM; in series [5] (Jurkat cell line), 1.3 µM. This compound showed a CC50 at 72 h in series [3] (L-02 normal liver cells) of 59.5 µM.
As to `CC(=O)O[C@@]12CO[C@@H]1C[C@H](O)[C@@]1(C)C(=O)[C@H](O)C3=C(C)[C@@H](OC(=O)[C@H](O)[C@@H](NC(=O)OC(C)(C)C)c4ccccc4)C[C@@](O)([C@@H](OC(=O)c4ccccc4)[C@H]21)C3(C)C` [Docetaxel, reference compound], in series [6], the “Tumor Weight” value is reported as 0.13 ± 0.07 g and the “Inhibition Rate % (tumor inhibition rate)” value is on record as 87.39%. Moreover, in series [7], the “effect on body weight of the mice” value is listed as “decreased”, the “effect on spleen index of mice (in words)” value was “decreased” and the “Spleen Index (100 × spleen mass/body mass)” value came to 0.25 ± 0.11.
